Test results from article PMC11003488 (Journal of Enzyme Inhibition and Medicinal Chemistry, 2023).

How the values were obtained:
Assay type in all cases: cell-based
Conditions in all cases: Homo sapiens
CCRF-CEM = assay: NCI-60 SRB growth inhibition, one-dose and five-dose
HL-60(TB) = assay: cells
K-562 = assay: NCI-60 SRB growth inhibition, one-dose and five-dose
MOLT-4 = assay: as above
SR = assay: as above
A549/ATCC = assay: as above
HOP-62 = assay: as above
HOP-92 = assay: as above
NCI-H226 = assay: as above
NCI-H322M = assay: as above
NCI-H460 = assay: as above
NCI-H522 = assay: as above
COLO 205 = assay: as above
HT29 = assay: as above
SW-620 = assay: as above
SF-268 = assay: as above
SF-295 = assay: as above
SF-539 = assay: as above
SNB-19 = assay: as above
SNB-75 = assay: as above
U251 = assay: as above
LOX IMVI = assay: as above
MALME-3M = assay: as above
M14 = assay: as above
MDA-MB-435 = assay: as above
SK-MEL-28 = assay: as above
SK-MEL-5 = assay: as above
UACC-62 = assay: as above
IGROV1 = assay: as above
OVCAR-4 = assay: as above
OVCAR-5 = assay: as above
NCI/ADR-RES = assay: as above
SK-OV-3 = assay: as above
786-0 = assay: as above
A498 = assay: as above
RXF 393 = assay: as above
TK-10 = assay: as above
PC-3 = assay: as above
DU-145 = assay: as above
HS 578 T = assay: as above
BT-549 = assay: as above
MDA-MB-468 = assay: as above
[1] = read-out: percent growth inhibition

Structure (SMILES): COc1ccc(CNc2cccc(C(=O)/C=C/c3ccc(NC(C)=O)cc3)c2)cc1OC [Compound 5h, (E)-N-(4–(3-(3-((3,4-dimethoxybenzyl)amino)phenyl)-3-oxoprop-1-en-1-yl)phenyl) acetamide]
- GI50 (CCRF-CEM): 2.74 µM
- inhibition at 10 µM (CCRF-CEM; [1]): 84.5%
- GI50 (HL-60(TB); HL-60): 2.54 µM
- inhibition at 10 µM (HL-60(TB); HL-60, read-out: percent growth inhibition): 78.8%
- GI50 (K-562; K562): 2.5 µM
- inhibition at 10 µM (K-562; K562, read-out: percent growth inhibition): 92.2%
- GI50 (MOLT-4; MOLT-4): 2.68 µM
- inhibition at 10 µM (MOLT-4; MOLT-4, read-out: percent growth inhibition): 78.3%
- GI50 (SR): 1.93 µM
- inhibition at 10 µM (SR; [1]): 98.3%
- GI50 (A549/ATCC; A549): 23.6 µM
- inhibition at 10 µM (A549/ATCC; A549, read-out: percent growth inhibition): 77.3%
- GI50 (HOP-62; HOP-62): 7.25 µM
- inhibition at 10 µM (HOP-62; HOP-62, read-out: percent growth inhibition): 62.3%
- GI50 (HOP-92; HOP-92): 4.02 µM
- inhibition at 10 µM (HOP-92; HOP-92, read-out: percent growth inhibition): 65.8%
- GI50 (NCI-H226; NCI-H226): 12.4 µM
- inhibition at 10 µM (NCI-H226; NCI-H226, read-out: percent growth inhibition): 21.2%
- GI50 (NCI-H322M): 13.6 µM
- inhibition at 10 µM (NCI-H322M; [1]): 32%
- GI50 (NCI-H460; NCI-H460): 2.1 µM
- inhibition at 10 µM (NCI-H460; NCI-H460, read-out: percent growth inhibition): 143%
- GI50 (NCI-H522; NCI-H522): 8.85 µM
- inhibition at 10 µM (NCI-H522; NCI-H522, read-out: percent growth inhibition): 150%
- GI50 (COLO 205; COLO 205): 9.39 µM
- inhibition at 10 µM (COLO 205; COLO 205, read-out: percent growth inhibition): 145%
- GI50 (HT29; HT-29): 3.46 µM
- inhibition at 10 µM (HT29; HT-29, read-out: percent growth inhibition): 172%
- GI50 (SW-620; SW-620): 2 µM
- inhibition at 10 µM (SW-620; SW-620, read-out: percent growth inhibition): 157%
- GI50 (SF-268; SF-268): 3.01 µM
- inhibition at 10 µM (SF-268; SF-268, read-out: percent growth inhibition): 64%
- GI50 (SF-295; SF-295): 7.83 µM
- inhibition at 10 µM (SF-295; SF-295, read-out: percent growth inhibition): 84.1%
- GI50 (SF-539; SF-539): 2.31 µM
- inhibition at 10 µM (SF-539; SF-539, read-out: percent growth inhibition): 174%
- GI50 (SNB-19; SNB-19): 5.19 µM
- inhibition at 10 µM (SNB-19; SNB-19, read-out: percent growth inhibition): 56.9%
- GI50 (SNB-75; SNB-75): 10.1 µM
- inhibition at 10 µM (SNB-75; SNB-75, read-out: percent growth inhibition): 62.8%
- GI50 (U251; U-251): 2.88 µM
- inhibition at 10 µM (U251; U-251, read-out: percent growth inhibition): 150%
- GI50 (LOX IMVI): 1.8 µM
- inhibition at 10 µM (LOX IMVI; [1]): 181%
- GI50 (MALME-3M): 3.5 µM
- inhibition at 10 µM (MALME-3M; [1]): 151%
- GI50 (M14; M14): 1.72 µM
- inhibition at 10 µM (M14; M14, read-out: percent growth inhibition): 142%
- GI50 (MDA-MB-435; MDA-MB-435): 2.22 µM
- inhibition at 10 µM (MDA-MB-435; MDA-MB-435, read-out: percent growth inhibition): 133%
- GI50 (SK-MEL-28; SK-MEL-28): 2.82 µM
- inhibition at 10 µM (SK-MEL-28; SK-MEL-28, read-out: percent growth inhibition): 108%
- GI50 (SK-MEL-5; SK-MEL-5): 4.13 µM
- inhibition at 10 µM (SK-MEL-5; SK-MEL-5, read-out: percent growth inhibition): 126%
- GI50 (UACC-62; UACC-62): 3.9 µM
- inhibition at 10 µM (UACC-62; UACC-62, read-out: percent growth inhibition): 130%
- GI50 (IGROV1; IGROV-1): 4.54 µM
- inhibition at 10 µM (IGROV1; IGROV-1, read-out: percent growth inhibition): 96.8%
- GI50 (OVCAR-4; OVCAR-4): 3.09 µM
- inhibition at 10 µM (OVCAR-4; OVCAR-4, read-out: percent growth inhibition): 89.4%
- GI50 (OVCAR-5; OVCAR-5): 4.53 µM
- inhibition at 10 µM (OVCAR-5; OVCAR-5, read-out: percent growth inhibition): 84.1%
- GI50 (NCI/ADR-RES): 2.86 µM
- GI50 (SK-OV-3; SK-OV-3): 20 µM
- inhibition at 10 µM (SK-OV-3; SK-OV-3, read-out: percent growth inhibition): 75.5%
- GI50 (786-0; 786-0): 1.57 µM
- inhibition at 10 µM (786-0; 786-0, read-out: percent growth inhibition): 155%
- GI50 (A498; A498): 13.7 µM
- inhibition at 10 µM (A498; A498, read-out: percent growth inhibition): 11.5%
- GI50 (RXF 393; RXF 393): 1.87 µM
- inhibition at 10 µM (RXF 393; RXF 393, read-out: percent growth inhibition): 132%
- GI50 (TK-10; TK-10): 4.09 µM
- inhibition at 10 µM (TK-10; TK-10, read-out: percent growth inhibition): 60.7%
- GI50 (PC-3; PC-3): 2.81 µM
- inhibition at 10 µM (PC-3; PC-3, read-out: percent growth inhibition): 85%
- GI50 (DU-145; DU-145): 4.25 µM
- inhibition at 10 µM (DU-145; DU-145, read-out: percent growth inhibition): 75.4%
- GI50 (HS 578 T): 3.07 µM
- inhibition at 10 µM (HS 578 T; [1]): 99.1%
- GI50 (BT-549; BT-549): 1.54 µM
- inhibition at 10 µM (BT-549; BT-549, read-out: percent growth inhibition): 126%
- GI50 (MDA-MB-468; MDA-MB-468): 2.44 µM
- inhibition at 10 µM (MDA-MB-468; MDA-MB-468, read-out: percent growth inhibition): 166%
